Test results reported in patent US20210022339A1, “USE OF DELAYED DORMANT APPLICATIONS OF HOMOBRASSINOLIDE ON GRAPES TO ENHANCE BUD BREAK” (priority 2019, published 2021).
Entries after “also recorded” stand apart in the source; their conditions may differ. Where two headings read alike, the source gives them in different places.

Assays:
[1] = test system: laboratory animals; conditions: cited from earlier work; for toxicity: in vivo
[2] = test system: vines; conditions: cited from earlier work
[3] = test system: Thompson Seedless Grapes; test: Percentage bud break on renewal spurs, vineyard trial; assay type: in vivo, Vitis; conditions: by 41 DAA
Source text: (§1) A portion of an established commercial vineyard was used for the study. The HBR (FIG. 1) treatments were replicated down a single row and arranged in sets of 3 vines per plot. Plots were flagged with colored ribbon to identify the treatments and there were 4 replicates each. Spray applications were made when the vines were still dormant on Day 0 (Feb. 12, 2019) or during the delayed dormant period, when buds were swollen or at eraser stage, on Day 24 (Mar. 8, 2019)). […] Crop injury was rated using a scale of 0-10, where 0=no injury and 10=100% of tree injured. Percentage bud break was evaluated by counting numbers of shoots from 30 nodes on fruiting canes from trunk to trunk and 5 renewal spurs were chosen non-systematically on Day 34 (Mar. 18, 2019) and Day 41 (Mar. 25, 2019).
However, the results were statistically significant between the rest breaking treatments as a group compared to the untreated check at both evaluation intervals. […] It appeared that spur bud break had peaked by 34 DAA because by 41 DAA, percentages were mostly the same. Only the untreated check continued to break buds, which remained approximately 15% lower than the rest breaking treatments as a group.

[4] = test system: nearby crops; conditions: in vivo; cited from earlier work
[5] = test system: Thompson Seedless Grapes; test: Crop injury / phytotoxicity observation; set-up: species or system Vitis; conditions: in vivo
Source text: as §1

[6] = test system: Thompson Seedless Grapes; test: Fruit growth uniformity; set-up: species or system Vitis; conditions: in vivo
[7] = test system: Thompson Seedless Grapes; test: Number of shoots (overcoming apical dominance); assay type: in vivo, Vitis
Source text: as §1

[8] = test system: Thompson Seedless Grapes; test: Percentage bud break on fruiting canes, vineyard trial; assay type: in vivo, Vitis; conditions: for bud break on fruiting canes, efficacy: compared to the untreated check
Source text: as §1
Statistical differences were highly significant and variability in the data was low. Having waited until approximately 55 chill portions (a quantification of the aggregate low temperature exposure needed for a crop to break dormancy), the dormant sprays allowed both the Hydrogen Cyanamide (Dormex®) treated and untreated vines to accumulate the maximum chilling. […] Uniformity was enhanced by both Dormex® and 5 ppm ai HBR applied as a dormant spray. Variability was lowest in the untreated check by 41 DAA even though bud break had not reached 90%. It is not unusual for bud break to exceed 100% because secondary shoots were stimulated by the effects of overcoming apical dominance by both effective rest breaking and the accumulation of maximum chilling by untreated vines. FIGS. 6 and 7.

[9] = test system: Thompson Seedless Grapes; conditions: grapes and other fruit crops; cited from earlier work
[10] = label for 0.1% HBR; SDS from Alzchem; cited from earlier work

CC[C@@H](C(C)C)C(O)C(O)[C@@H](C)[C@H]1CC[C@H]2[C@@H]3COC(=O)[C@H]4C[C@H](O)[C@H](O)C[C@]4(C)[C@H]3CC[C@]12C (stereo in doubt) [HBR, homobrassinolide]
toxicity [1]: non-toxic mode of action
lowering of the fruitability of vines ([2]; in vivo): no such effect
spur bud break, effects ([3]; 2 ppm ai applied at bud swell): equivalent to the untreated check
effect on nearby crops [4]: no evidence that HBR has harmful effects on nearby crops
crop injury [5]: without crop injury
phytotoxicity [5]: non-phytotoxic
fruit growth uniformity [6]: enhance fruit growth uniformity
shoots compared to control ([7]; 1 ppm ai): increased shoots compared to control
shoots compared to control ([7]; 2 ppm ai): increased shoots compared to control
shoots compared to control ([7]; 5 ppm ai): increased shoots compared to control
shoots compared to the standard treatment ([7]; both 1 ppm ai and 1 ppm ai treatments (so in the source)): comparable to the Hydrogen Cyanamide standard treatment
number of shoots ([7]; either dormant or delayed dormant spray applications): increased number of shoots
bud break on fruiting canes, efficacy ([8]; 1 ppm ai applied at early bud swell): as effective as the standard rate of Dormex
bud break on fruiting canes, efficacy ([8]; 2 ppm ai applied at early bud swell): as effective as the standard rate of Dormex
bud break uniformity ([8]; 5 ppm ai applied as a dormant spray): enhanced
bud break on fruiting canes, effects ([8]; 5 ppm applied delayed dormant, 34 DAA): statistically equivalent to the untreated check
active concentration range ([8]; in vivo): nano molar to pico molar range

N#CN [Dormex, Hydrogen Cyanamide, reference compound]
adverse effects in laboratory animals ([1]; California EPA Department of Pesticide Regulation study): causes adverse effects in the liver, thyroid, kidney, ovaries, and testes
toxicity [1]: reported toxicity due to acute exposure; also recorded: can be acutely toxic when misused
lowering of the fruitability of vines ([2]; repeated use over the years): 20-30 % per year
spur bud break [3]: < 100%
phytotoxicity [9]: can be phytotoxic
biodegradability [10]: not readily biodegradable
effect on nearby crops [4]: can damage nearby crops
bud break uniformity ([8]; Dormex standard rate, dormant spray): enhanced
amount needed to approach the effect of HBR, times ([8]; in vivo): approximately 20,000 times
